Results on one substance are retold here after US12599622B2, “Compounds to modulate intestinal absorption of nutrients” (The Brigham and Women's Hospital, Inc., priority 2013, dated 2026).

Data set [1] in a line: integrative permeation test: glucose barrier on mucin-coated membrane in Franz cell. The conditions noted are these: paste in simulated stomach acid pH 1.0 on mucin-coated membrane; normalized to membrane without material (0% blocked).
Method: Specifically, a cellulose nitrate membrane (pore size: 0.2 μm, Whatman, Germany) was incubated in a 3% w/v porcine stomach mucin (Sigma-Aldrich, USA) solution in Hank's balanced salt solution (HBSS) and gently shaken for 2 hours at room temperature. The membrane was washed with distilled deionized water (DDW, pH 7) to remove the excess mucin solution. The mucin-coated membranes were used within 1 hour following preparation. To measure the thickness of the mucin layer, the mucin-coated membrane was lyophilized and imaged using scanning electron microscope (SEM) and the thickness of randomly selected positions was examined (average mucin layer thickness: ˜100 μm).
The dry weight was calculated from dry weights of material-attached membranes and mucin-coated membranes. […] The permeation test was performed in triplicate. The glucose concentration was measured using high performance liquid chromatography (HPLC, Agilent, USA) with an analytical C18 column (Zorbax Eclipse XDB-C18, Agilent). The flow rate was 1 ml/minute, the eluent was DDW, and the wavelength of UV detector was 195 nm.
The barrier properties of the resultant particles were measured by adding 0.9 ml of particle dispersion and 0.1 ml of 10× simulated stomach acid.
Data set [2] can be described thus: dynamic viscosity by rheometer in simulated stomach acid. Type of data set: physicochemical. The conditions noted are these: 1% w/v in simulated stomach acid. As for the experimental part: Dynamic viscosity was measured using a 20-mm plate with 200-μm gaps (shear rate: 0.01-100 l/s in log scale, shear rate of 1 l/s was selected to compare viscosity of materials).

Data set [3] in a line: aluminum release / aluminum content by ICP-AES. Format: physicochemical. On the procedure: To confirm the pH dependent release of aluminum from sucralfate and ASP, aluminum-release was measured during ASP paste formation. […] The aluminum content in the supernatants was measured using inductively coupled plasma atomic emission spectroscopy (ICP-AES, ULTIMA-2, Horiba).
To measure additional aluminum release from aluminum-pre-released ASP, formed pastes were washed with DDW, and 500 mg was added to 10 ml of simulated stomach acid. The samples were vortexed for 5 minutes and incubated for 2 hours. The aluminum content in the supernatant solutions was measured using ICP-AES.

The nature of data set [4]: mechanical stability of pastes (wet and dry weight over time). Format: physicochemical. As for the experimental part: To assess mechanical stability and physical properties of ASP, each 500 mg of ASP prepared from HCl solutions (0.1-0.3N) was added to 1 ml of simulated stomach acid (pH 1.0) in 37° C. At time points including 0, 10, 30, 60, 120 and 300 minutes, supernatant was removed to measure the wet weight. The remaining paste was lyophilized to measure the dry weight.

The subject of data set [5] is Sprague-Dawley (SD) rats. The data set is described as follows: Oral Glucose Tolerance Test (OGTT) after pre-gavage. The conditions noted are these: 15-hour fasted rats, 500 mg/kg 3 times. Format: in vivo, rat. As for the experimental part: To evaluate the in vivo effect of ASP-PC on postprandial glucose absorption, Sprague-Dawley (SD) rats were pre-gavaged with the particles and tested using the Oral Glucose Tolerance Test (OGTT) method. […] For shorter fasting time, the rats were fasted for 5 hour (starting time: 7 am the same day of OGTT) and gavaged with saline or ASP-PC (starting time: 12 am the same day, dose: 500 mg/kg rat, 3 times, 1-hour apart for each gavage). Blood was collected from the tail vein to measure blood glucose level using a glucometer (OneTouch UltraSmart, LifeScan Inc., USA). Statistical significance was determined using a paired Student t-test. Results were considered significant when p≤0.05.
ASP-PC particles were gavaged in Sprague-Dawley (SD) rats fasted for 5 hour (FIGS. 11A, 11B, and 11C) or 15 hour (FIGS. 11D, 11E, andllF) (dose: 500 mg/kg rat, 3 times, 1-hour apart for each gavage).

For data set [6] the following is noted: followed by excretion via feces; cited from earlier work.

For “sucrose octasulfate-aluminum complex [sucralfate]”, the “blocking of glucose (barrier property to glucose permeation)” value in data set [1] is reported as 62%. Further, the viscosity result in data set [2] is listed as “very high viscosity”. Besides, the “percentage of total aluminum released” value in data set [3] (in 0.1N HCl) is reported as around 9.4%; in data set [3] (in 0.3N HCl), around 44.8%. In addition, in data set [3] (reaction with simulated stomach acid (pH 1.0)), the “original aluminum content released” value was around 9.4%. Moreover, the “total mass liberated upon exposure to stomach acid” value in data set [4] is reported as around 10%. Moreover, the “peak glucose values at all other time points versus saline” value in data set [5] is “similar”. For the same substance, the “5-minutes glucose level following OGTT” value in data set [5] (p<0.003 vs saline) came to 97.8 ± 7.3 mg/dL. The “duration in the GI tract” value in data set [6] is 2 to 6 h.
